# Assay results taken from publication PMC5817118 (Theranostics, 2018).
# “Also recorded” adds a separate entry of the source. Where a SMILES comes first, the peptide text is derived from it. Bridges are numbered along the chain shown (N, C = ends). [ ]: non-standard residue; d: D form. AEEA = NCCOCCOCC(=O)O
# How the values were obtained:
# [1] = Organ biodistribution in mice at 180 min; format: in vivo; details: 180 min after tail vein injection, n=3/treatment
# [2] = biological target: T1, fibrin clot (Homo sapiens, UniProt P02671+P02675+P02679); assay: Plasma matrix interference on probe binding to fibrin clots; details: 20 µCi probe, 0.1 M PBS diluted 50% with fresh frozen human plasma, 0.5 mL, 37 °C, 30 min, triplicate
# T1 sequence (P02671 20-644 isoform P02671-2 limits assumed): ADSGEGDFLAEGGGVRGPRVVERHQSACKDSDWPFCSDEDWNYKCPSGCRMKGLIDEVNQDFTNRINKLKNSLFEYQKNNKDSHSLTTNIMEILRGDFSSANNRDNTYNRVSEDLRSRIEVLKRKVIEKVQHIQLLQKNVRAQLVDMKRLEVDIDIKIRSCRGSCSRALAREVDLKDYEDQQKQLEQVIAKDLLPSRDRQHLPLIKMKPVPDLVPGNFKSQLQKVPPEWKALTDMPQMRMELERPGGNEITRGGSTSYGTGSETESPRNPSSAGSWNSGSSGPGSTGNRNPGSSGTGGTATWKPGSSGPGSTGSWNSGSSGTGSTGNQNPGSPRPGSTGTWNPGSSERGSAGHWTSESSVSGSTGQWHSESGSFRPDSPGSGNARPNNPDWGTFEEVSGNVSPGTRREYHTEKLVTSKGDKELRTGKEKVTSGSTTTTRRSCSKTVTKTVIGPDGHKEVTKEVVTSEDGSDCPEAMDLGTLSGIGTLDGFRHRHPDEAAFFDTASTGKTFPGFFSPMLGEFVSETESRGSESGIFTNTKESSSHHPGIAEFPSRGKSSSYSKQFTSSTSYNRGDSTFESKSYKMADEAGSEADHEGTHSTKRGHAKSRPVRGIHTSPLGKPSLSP
# T1 sequence (P02675 45-491 limits assumed): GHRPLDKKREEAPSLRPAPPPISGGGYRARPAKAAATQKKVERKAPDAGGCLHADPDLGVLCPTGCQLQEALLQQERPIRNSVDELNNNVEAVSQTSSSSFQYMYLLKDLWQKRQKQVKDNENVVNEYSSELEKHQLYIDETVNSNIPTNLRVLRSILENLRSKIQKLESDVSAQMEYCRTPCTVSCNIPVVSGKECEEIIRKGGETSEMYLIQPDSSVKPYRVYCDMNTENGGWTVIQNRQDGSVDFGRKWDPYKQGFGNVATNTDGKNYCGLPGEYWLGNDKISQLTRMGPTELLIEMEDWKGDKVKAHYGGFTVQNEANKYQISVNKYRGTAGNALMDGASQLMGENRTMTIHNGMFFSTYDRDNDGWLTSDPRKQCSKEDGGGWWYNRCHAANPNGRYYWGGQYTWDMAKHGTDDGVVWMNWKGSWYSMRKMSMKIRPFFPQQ
# T1 sequence (P02679 27-437 isoform P02679-2 limits assumed): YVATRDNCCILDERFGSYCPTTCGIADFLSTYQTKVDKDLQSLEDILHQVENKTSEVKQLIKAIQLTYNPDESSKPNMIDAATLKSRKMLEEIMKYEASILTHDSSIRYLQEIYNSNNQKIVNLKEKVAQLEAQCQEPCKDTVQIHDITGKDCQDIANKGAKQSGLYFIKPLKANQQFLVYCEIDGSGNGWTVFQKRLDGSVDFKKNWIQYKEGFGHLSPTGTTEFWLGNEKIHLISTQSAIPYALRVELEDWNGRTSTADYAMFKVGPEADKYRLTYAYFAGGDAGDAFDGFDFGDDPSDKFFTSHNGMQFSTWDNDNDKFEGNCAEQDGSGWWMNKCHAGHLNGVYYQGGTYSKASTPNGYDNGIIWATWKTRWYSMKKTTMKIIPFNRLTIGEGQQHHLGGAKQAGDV
smiles,measurement,setting,value
"CC[C@H](C)[C@H](NC(=O)[C@H](Cc1c[nH]c2ccccc12)NC(=O)[C@@H]1CSSC[C@H](NC(=O)[C@H](CCC(=O)O)NC(=O)[C@H](Cc2c[nH]c3ccccc23)NC(=O)[C@H](CCC(N)=O)NC(=O)COCCOCCNC(=O)[C@H](CCC(=O)O)NC(=O)[C@H](Cc2c[nH]cn2)NC(=O)[C@@H](N)Cc2c[nH]cn2)C(=O)N2CCC[C@H]2C(=O)N[C@@H](Cc2ccc(O)cc2)C(=O)NCC(=O)N[C@@H](CC(C)C)C(=O)N1)C(=O)N[C@@H](CCC(N)=O)C(=O)O [^99mTc-F1A, metal not drawn] (H-HHE[AEEA]QWECPYGLCWIQ-OH; disulfide 8-13)","organ accumulation (lung, liver, spleen)",[1],"negligible liver or spleen biodistribution; also recorded: neither probe accumulating substantially in the lung, liver or spleen"
same,binding to fibrin clots in the presence of human plasma compared with PBS alone,[2],interfered; also recorded: dramatically reduced; also recorded: severely compromised
